Data published in US10308615B2, “Heterocyclic compounds as inhibitors of Vanin-1 enzyme” (Pfizer Inc., priority 2015, dated 2019).

How the values were obtained:
Format in all cases: biochemical
human vanin-1 [1] = target: T1, human vanin-1 (Homo sapiens (Human), UniProt O95497); assay: Human Vanin-1 Enzyme Assay 3; settings: 2 nM human vanin-1, 10 uM substrate, 15 min
Outline: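 His/FLAG-tagged extracellular domain of human vanin-1 from CHO cells, used at 2 nM final, with 10 uM pantetheine-AFC substrate. Buffer: 50 mM Tris-HCl pH 8.0, 50 mM KCl, 0.005% Brij-35, 1.5 mM cysteamine, 1% DMSO. 15 min at room temperature; fluorescence read at 405/505 nm across an 11-point 2-fold dilution series.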

human vanin-1 [2] = target: T1, human vanin-1; assay: Human Vanin-1 Enzyme Assay 2; settings: 1 nM human vanin-1, 10 uM substrate, 45 min
Protocol: Human Vanin-1 Enzyme Assay 2.
The in vitro assay measures enzymatic cleavage of the fluorescently-labeled vanin substrate, pantetheine 7-amino-4-trifluoromethylcoumarin, by human vanin-1.
The vanin-1 protein was prepared in-house from a construct expressing the extracellular domain of human vanin-1 (GenBank ID NM_004666) preceded N-terminally by the honey bee melittin signal peptide, a GSG linker sequence, a His6X tag and a FLAG tag. The secreted, soluble enzyme was purified from the conditioned medium from a CHO cell line stably expressing the resulting protein. Enzyme purification was performed through sequential Ni NTA and size-exclusion chromatography steps.
On the day of the assay, dose response plates were prepared by diluting the inhibitors in DMSO at compound concentration 100-fold the final in-assay concentration. Concentration series were prepared by serially diluting in DMSO in a half-log series for a total of 11 data points. Intermediate compound plates containing compound in 10% DMSO were then created by diluting the compounds 10-fold in assay buffer consisting of 50 mM Tris-HCl pH=8.0, 50 mM KCl, 0.005% Brij-35 and 1.5 mM cysteamine. To begin the assay 3 μL were transferred from the intermediate compound plate to the assay plate.
A working solution of human vanin-1 was prepared by diluting the enzyme stock to 1.25 nM in assay buffer. Next, 24 μL of the vanin-1 working solution were transferred to the assay plate. The enzyme reaction was then initiated by the addition of 3 μL of 100 μM pantetheine 7-amino-4-trifluoromethylcoumarin prepared in assay buffer. The final concentrations in the assay were 1 nM human vanin-1 and 10 uM substrate. The final concentration of DMSO was 1%. The assay plates were incubated for 45 minutes and before they were read on a Spectramax M5 using a 405 nm excitation wavelength and a 505 nm emission wavelength for detection.

human vanin-1 [3] = target: T1, human vanin-1; assay: Human Vanin-1 Enzyme Assay 1; settings: 25 pM human vanin-1, 50 uM pantetheine 7-amino-4-trifluoromethylcoumarin, 30 min preincubation, 60 min
Outline: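 Purified His6/FLAG-tagged extracellular domain of human vanin-1, secreted from CHO cells, at 25 pM final in 50 mM Tris-HCl pH 8.0, 50 mM KCl, 0.005% Brij-35, 1.6 mM cysteamine, 0.5% DMSO. Inhibitor preincubated 30 min at room temperature; 50 uM pantetheine-AFC substrate, 60 min, fluorescence at 405/510 nm; 11-point four-fold dilution series.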

T1 sequence (O95497 22-491): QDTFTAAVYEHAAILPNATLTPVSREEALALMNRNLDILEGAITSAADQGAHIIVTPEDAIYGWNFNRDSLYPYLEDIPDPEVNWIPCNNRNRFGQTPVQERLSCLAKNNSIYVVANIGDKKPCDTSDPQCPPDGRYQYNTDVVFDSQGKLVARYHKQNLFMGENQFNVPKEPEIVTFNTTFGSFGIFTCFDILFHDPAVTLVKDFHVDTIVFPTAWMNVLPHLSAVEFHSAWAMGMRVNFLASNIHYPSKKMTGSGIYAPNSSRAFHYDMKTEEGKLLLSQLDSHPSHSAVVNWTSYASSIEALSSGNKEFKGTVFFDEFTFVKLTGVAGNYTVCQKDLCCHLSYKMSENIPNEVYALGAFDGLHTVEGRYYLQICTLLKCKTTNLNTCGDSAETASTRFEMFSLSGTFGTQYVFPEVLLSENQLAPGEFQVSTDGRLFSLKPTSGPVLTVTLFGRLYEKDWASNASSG

Row | SMILES | IC50 (human vanin-1 [1]) [nM] | IC50 (human vanin-1 [2]) [nM] | IC50 (human vanin-1 [3]) [nM]
1 | COc1ccc(CNc2ncc(C(=O)c3cccc(C#N)c3)cn2)cc1 [Example 29, 3-({2-[(4-methoxybenzyl)amino]pyrimidin-5-yl}carbonyl) benzonitrile] | 107 | 72.7 | 122
2 | NC(=O)c1ccc(CNc2ncc(C(=O)c3cccc(C(F)(F)F)c3)cn2)cc1 [Example 33, 4-[({5-[3-(trifluoromethyl)benzoyl]pyrimidin-2-yl}amino)methyl] benzamide] | 206 | 55.9 | 7.3
3 | Cc1cccc(C(=O)c2cnc(NCc3ccccn3)nc2)c1 [Example 38, (3-methylphenyl){2-[(pyridin-2-ylmethyl)amino]pyrimidin-5-yl}methanone] | 735 | 868 | 857
4 | Cc1cccc(C(=O)c2cnc(NCc3ccccc3)nc2)c1 [Example 40, [2-(benzylamino)pyrimidin-5-yl](3-methylphenyl) methanone] | 543 | 170 | 1740
5 | COc1cccc(C(=O)c2cnc(NCc3ccccc3)nc2)c1 [Example 45, [2-(benzylamino)pyrimidin-5-yl](3-methoxyphenyl) methanone] | 144 | 188 | 794
6 | NC(=O)c1cccc(CNc2ncc(C(=O)c3cccc(Cl)c3)cn2)c1 [Example 48, 3-({[5-(3-chlorobenzoyl)pyrimidin-2-yl]amino}methyl) benzamide] | 398 | 357 | 218
7 | O=C(O)c1ccc(CNc2ncc(C(=O)c3ccc(F)c(F)c3)cn2)cc1 [Example 49, 4-({[5-(3,4-difluorobenzoyl)pyrimidin-2-yl]amino}methyl) benzoic acid] | 112 | > 7620 | 5690
8 | COc1ccc(C(=O)c2cnc(NCc3ccc(C(N)=O)cc3)nc2)cc1 [Example 59, 4-({[5-(4-methoxybenzoyl)pyrimidin-2-yl]amino}methyl) benzamide] | 192 | 624 | 2280
9 | Cc1ccc(CNc2ncc(C(=O)c3cccc(C(F)(F)F)c3)cn2)cn1 [Example 73, (2-{[(6-methylpyridin-3-yl)methyl]amino}pyrimidin-5-yl)[3-(trifluoromethyl)phenyl]methanone] | 1.2 | 10.6 | 1.7
10 | NC(=O)c1ccc(CNc2ncc(C(=O)c3cc(F)cc(C(F)(F)F)c3)cn2)cc1 [Example 95, 4-[({5-[3-fluoro-5-(trifluoromethyl)benzoyl]pyrimidin-2-yl}amino)methyl] benzamide] | 166 | 242 | 91.9
11 | O=C(c1cnc(NCc2cccnc2)nc1)c1cccs1 [Example 100, {2-[(pyridin-3-ylmethyl)amino]pyrimidin-5-yl}(thiophen-2-yl)methanone] | 145 | 122 | 162
12 | O=C(c1cnc(NCc2cccnc2)nc1)c1ccccc1Cl [Example 102, (2-chlorophenyl){2-[(pyridin-3-ylmethyl)amino]pyrimidin-5-yl}methanone] | 722 | 549 | 858
13 | Cc1ccc2cc(C(=O)c3cnc(NCc4cccnc4)nc3)ccc2n1 [Example 104, (2-methylquinolin-6-yl){2-[(pyridin-3-ylmethyl)amino]pyrimidin-5-yl}methanone] | 200 | 116 | 196
14 | N#Cc1cccc(C(=O)c2cnc(NCc3ccc(C(N)=O)nc3)nc2)c1 [Example 105, 5-({[5-(3-cyanobenzoyl)pyrimidin-2-yl]amino}methyl) pyridine-2-carboxamide] | 173 | 195 | 146
15 | NC(=O)c1ccc(CNc2ncc(C(=O)c3ccccc3)cn2)cc1 [Example 106, 4-{[(5-benzoylpyrimidin-2-yl)amino]methyl} benzamide] | 423 | 990 | 387
16 | O=C(c1ccccc1)c1cnc(NCc2cncnc2)nc1 [Example 109, phenyl{2-[(pyrimidin-5-ylmethyl)amino]pyrimidin-5-yl}methanone] | 95.3 | 145 | 143
17 | O=C(c1ccccc1)c1cnc(NC2(c3ccccc3)CC2)nc1 [Example 111, phenyl{2-[(1-phenylcyclopropyl)amino]pyrimidin-5-yl}methanone] | 182 | 202 | 367
18 | N#Cc1cccc(C(=O)c2cnc(NCc3ccnnc3)nc2)c1 [Example 112, 3-({2-[(pyridazin-4-ylmethyl)amino]pyrimidin-5-yl}carbonyl) benzonitrile] | 1870 | 856 | 5570
19 | N#Cc1cccc(CNc2ncc(C(=O)c3ccccc3)cn2)c1 [Example 113, 3-{[(5-benzoylpyrimidin-2-yl)amino]methyl} benzonitrile] | 259 | 334 | 872

The remaining lines, values ahead:

Row | IC50 (human vanin-1 [1]) [nM] | IC50 (human vanin-1 [2]) [nM] | IC50 (human vanin-1 [3]) [nM] | SMILES
20 | 16.8 | 35.5 | 36.4 | N#Cc1cccc(C(=O)c2cnc(NCc3ccc(F)cc3F)nc2)c1 [Example 30, 3-({2-[(2,4-difluorobenzyl)amino]pyrimidin-5-yl}carbonyl) benzonitrile]
21 | 14 | 57.2 | 102 | N#Cc1cccc(C(=O)c2cnc(NCc3ccc(F)cc3)nc2)c1 [Example 31, 3-({2-[(4-fluorobenzyl)amino]pyrimidin-5-yl}carbonyl) benzonitrile]
22 | 14.3 | 71.3 | 95.3 | N#Cc1cccc(C(=O)c2cnc(NCc3ccccc3Cl)nc2)c1 [Example 32, 3-({2-[(2-chlorobenzyl)amino]pyrimidin-5-yl}carbonyl) benzonitrile]
23 | 69.3 | 108 | 53.7 | O=C(c1ccccc1)c1cnc(NCc2cccnc2)nc1 [Example 34, phenyl{2-[(pyridin-3-ylmethyl)amino]pyrimidin-5-yl}methanone]
24 | 12 | 22.1 | 18.8 | N#Cc1cccc(C(=O)c2cnc(NC3(c4ccccc4)CC3)nc2)c1 [Example 65, 3-({2-[(1-phenylcyclopropyl)amino]pyrimidin-5-yl}carbonyl) benzonitrile]
25 | 10.6 | 44.8 | 21.3 | O=C(c1cnc(NC2(c3ccccc3)CC2)nc1)c1cccc(C(F)(F)F)c1 [Example 66, {2-[(1-phenylcyclopropyl)amino]pyrimidin-5-yl}[3-(trifluoromethyl)phenyl]methanone]
26 | 78.8 | 73.1 | 107 | N#Cc1cccc(C(=O)c2cnc(NCc3ccc(C(N)=O)cc3)nc2)c1 [Example 68, 4-({[5-(3-cyanobenzoyl)pyrimidin-2-yl]amino}methyl) benzamide]
27 | 25.9 | 45.2 | 67.1 | NC(=O)c1ccc(CNc2ncc(C(=O)c3ccc(F)c(C(F)(F)F)c3)cn2)cc1 [Example 87, 4-[({5-[4-fluoro-3-(trifluoromethyl)benzoyl]pyrimidin-2-yl}amino)methyl] benzamide]
28 | 91.3 | 783 | 789 | O=C(c1cccc(C(F)(F)F)c1)c1ccc(NCc2cccnc2)nn1 [Example 91, {6-[(pyridin-3-ylmethyl)amino]pyridazin-3-yl}[3-(trifluoromethyl)phenyl]methanone]
29 | 55.5 | 149 | 102 | O=C(c1cnc(NCc2cccnc2)nc1)c1ccc2c(c1)OCCO2 [Example 98, 2,3-dihydro-1,4-benzodioxin-6-yl{2-[(pyridin-3-ylmethyl)amino]pyrimidin-5-yl}methanone]
30 | 96.7 | 110 | 111 | N#Cc1cccc(C(=O)c2cnc(NCc3cccnn3)nc2)c1 [Example 108, 3-({2-[(pyridazin-3-ylmethyl)amino]pyrimidin-5-yl}carbonyl) benzonitrile]
31 | 63.5 | 238 | 422 | CC(C)(Nc1ncc(C(=O)c2ccccc2)cn1)c1ccccc1 [Example 110, phenyl{2-[(2-phenylpropan-2-yl)amino]pyrimidin-5-yl}methanone]
